# Assay results from patent US8840866B2, “Styrylpyridine derivatives and their use for binding and imaging amyloid plaques” (The Trustees of the University of Pennsylvania, priority 2006, dated 2014).
# Key:
# fibrillar Aβ aggregates = fibrillar Aβ aggregates (Homo sapiens, UniProt P05067); conditions: Mathis et al. 1997; read-out: inhibition constants (Ki) for binding to fibrillar Aβ aggregates; cited from earlier work
# [1] = target: amyloid plaques in AD brain homogenates (Homo sapiens, UniProt P05067); conditions: displacement of 125I-IMPY binding
# Protocol: Values represent potencies (Ki) of compounds for displacement of ^125I-IMPY binding to amyloid plaques in AD brain homogenates.
# Competition binding assays were carried out in 12×75 mm borosilicate glass tubes. The reaction mixture contained 50 μl of pooled AD brain homogenates (20-50 μg), 50 μl of [^125I]IMPY (0.04-0.06 nM diluted in PBS) and 50 μl of inhibitors (10^−5-10^10 M diluted serially in PBS containing 0.1% bovine serum albumin) in a final volume of 1 ml. Nonspecific binding was defined in the presence of 600 nM IMPY in the same assay tubes. The mixture was incubated at 37° C. for 2 h and the bound and the free radioactivity were separated by vacuum filtration through Whatman GF/B filters using a Brandel M-24R cell harvester followed by 2×3 ml washes of PBS at room temperature. Filters containing the bound 1-125 ligand were counted in a gamma counter (Packard 5000) with 70% counting efficiency. Under the assay conditions, the specifically bound fraction was less than 15% of the total radioactivity. The results of inhibition experiments were subjected to nonlinear regression analysis using equilibrium binding data analysis from which Ki values were calculated.
# Aβ plaques = assay: Film autoradiography of postmortem AD brain sections; type: binding, human
# Protocol: [^18F]tracers: Brain sections from AD subjects were obtained by freezing the brain in powdered dry ice and cut into 20 micrometer-thick sections. The sections were incubated with [^18F]tracers (200,000-250,000 cpm/200 μl) for 1 hr at room temperature. The sections were then dipped in saturated Li2CO3 in 40% EtOH (two two-minute washes) and washed with 40% EtOH (one two-minute wash) followed by rinsing with water for 30 sec. After drying, the ^18F-labeled sections were exposed to Kodak MR film overnight.
# [2] = Organ distribution in normal ICR mice after iv injection of radiolabeled tracer; type: in vivo; conditions: 5% EtOH in saline
# Protocol: The mice (n=3 for each time point) were sacrificed by cervical dislocation at designated time-points post injection. The organs of interest were removed and weighed, and the radioactivity was counted with an automatic gamma counter. The percentage dose per organ was calculated by a comparison of the tissue counts to suitably diluted aliquots of the injected material. The total activity of the blood was calculated under the assumption that it is 7% of the total body weight. The % dose/g of samples was calculated by comparing the sample counts with the count of the diluted initial dose.
# [3] = tested on: pooled AD and control brain tissue homogenates; assay: Specific binding of [18F]2 to pooled AD and control brain tissue homogenates; set-up: species or system human
# Text: FIG. 8 depicts specific binding of [^18F]2 to pooled AD and control brain tissue homogenates. Gray and white matters were dissected from the cortical regions. […] The values presented are the mean±SEM of six measurements.
# [4] = 2 min, second organ list r16-r25
# [5] = 30 min, first organ list r6-r15
# [6] = 30 min, second organ list r16-r25
# [7] = 1 hr, second organ list r16-r25
# [8] = 2 hr, second organ list r16-r25
# amyloid plaques in AD brain homogenates, sequence (P05067 672-711): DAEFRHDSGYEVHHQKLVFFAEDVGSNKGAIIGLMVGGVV
# fibrillar Aβ aggregates, sequence (P05067 672-711 limits assumed): as the sequence (P05067 672-711) above
structure (smiles),measurement,setting,value
"O=C(O)c1cc(/N=N/c2ccc(-c3ccc(/N=N/c4ccc(O)c(C(=O)O)c4)cc3)cc2)ccc1O [CG, chrysamine-G]",Ki,fibrillar Aβ aggregates,370 nM
"CN(C)c1ccc(/C=C/c2ccc(OCCOCCOCCF)nc2)cc1 [Compound 2, (E)-2-(2-(2-(2-fluoroethoxy)ethoxy)ethoxy)-5-(4-dimethylaminostyryl)pyridine]",Ki,[1],2.5 ± 0.4 nM
same,autoradiography result,Aβ plaques,confirmed the specific binding related to the presence of Aβ plaques
"CN(C)c1ccc(/C=C/c2ccc(OCCOCCOCCF)nc2)cc1 [[^18F]2, (E)-2-(2-(2-(2-fluoroethoxy)ethoxy)ethoxy)-5-(4-dimethylaminostyryl)pyridine]",Biodistribution: Blood,"[2]; 2 min, first organ list r6-r15",6.05 ± 0.33 % dose/g
same,Biodistribution: Bone,"[2]; 2 min, first organ list r6-r15",5.97 ± 0.56 % dose/g
same,Biodistribution: Brain,"[2]; 2 min, first organ list r6-r15",3.49 ± 0.58 % dose/g
same,Biodistribution: Heart,"[2]; 2 min, first organ list r6-r15",0.75 ± 0.14 % dose/g
same,Biodistribution: Kidney,"[2]; 2 min, first organ list r6-r15",6.38 ± 0.95 % dose/g
same,Biodistribution: Liver,"[2]; 2 min, first organ list r6-r15",24.90 ± 1.49 % dose/g
same,Biodistribution: Lung,"[2]; 2 min, first organ list r6-r15",1.07 ± 0.20 % dose/g
same,Biodistribution: Muscle,"[2]; 2 min, first organ list r6-r15",7.03 ± 1.30 % dose/g
same,Biodistribution: Skin,"[2]; 2 min, first organ list r6-r15",2.52 ± 0.24 % dose/g
same,Biodistribution: Spleen,"[2]; 2 min, first organ list r6-r15",0.43 ± 0.11 % dose/g
same,Biodistribution: Blood,[2]; [4],3.04 ± 0.29 % dose/g
same,Biodistribution: Bone,[2]; [4],1.49 ± 0.08 % dose/g
same,Biodistribution: Brain,[2]; [4],7.77 ± 1.34 % dose/g
same,Biodistribution: Kidney,[2]; [4],14.19 ± 2.34 % dose/g
same,Biodistribution: Liver,[2]; [4],17.00 ± 0.69 % dose/g
same,Biodistribution: Lung,[2]; [4],5.65 ± 0.89 % dose/g
same,Biodistribution: Muscle,[2]; [4],0.62 ± 0.10 % dose/g
same,Biodistribution: Skin,[2]; [4],0.59 ± 0.03 % dose/g
same,Biodistribution: Spleen,[2]; [4],4.65 ± 0.76 % dose/g
same,Biodistribution: Blood,[2]; [5],2.65 ± 0.22 % dose/g
same,Biodistribution: Bone,[2]; [5],2.52 ± 0.34 % dose/g
same,Biodistribution: Brain,[2]; [5],0.48 ± 0.07 % dose/g
same,Biodistribution: Heart,[2]; [5],0.17 ± 0.03 % dose/g
same,Biodistribution: Kidney,[2]; [5],1.68 ± 0.11 % dose/g
same,Biodistribution: Liver,[2]; [5],9.26 ± 0.83 % dose/g
same,Biodistribution: Lung,[2]; [5],0.30 ± 0.01 % dose/g
same,Biodistribution: Muscle,[2]; [5],8.58 ± 0.26 % dose/g
same,Biodistribution: Skin,[2]; [5],3.99 ± 0.34 % dose/g
same,Biodistribution: Spleen,[2]; [5],0.15 ± 0.05 % dose/g
same,Biodistribution: Blood,[2]; [6],1.33 ± 0.16 % dose/g
same,Biodistribution: Bone,[2]; [6],0.63 ± 0.12 % dose/g
same,Biodistribution: Brain,[2]; [6],1.03 ± 0.11 % dose/g
same,Biodistribution: Heart,[2]; [6],1.28 ± 0.16 % dose/g
same,Biodistribution: Kidney,[2]; [6],3.77 ± 0.36 % dose/g
same,Biodistribution: Liver,[2]; [6],7.21 ± 0.69 % dose/g
same,Biodistribution: Lung,[2]; [6],1.73 ± 0.17 % dose/g
same,Biodistribution: Muscle,[2]; [6],0.75 ± 0.04 % dose/g
same,Biodistribution: Skin,[2]; [6],0.93 ± 0.13 % dose/g
same,Biodistribution: Spleen,[2]; [6],1.57 ± 0.51 % dose/g
same,Biodistribution: Blood,"[2]; 1 hr, first organ list r6-r15",3.48 ± 0.47 % dose/g
same,Biodistribution: Bone,"[2]; 1 hr, first organ list r6-r15",4.39 ± 0.40 % dose/g
same,Biodistribution: Brain,"[2]; 1 hr, first organ list r6-r15",0.55 ± 0.10 % dose/g
same,Biodistribution: Heart,"[2]; 1 hr, first organ list r6-r15",0.22 ± 0.03 % dose/g
same,Biodistribution: Kidney,"[2]; 1 hr, first organ list r6-r15",1.96 ± 0.21 % dose/g
same,Biodistribution: Liver,"[2]; 1 hr, first organ list r6-r15",10.52 ± 2.18 % dose/g
same,Biodistribution: Lung,"[2]; 1 hr, first organ list r6-r15",0.35 ± 0.07 % dose/g
same,Biodistribution: Muscle,"[2]; 1 hr, first organ list r6-r15",10.62 ± 2.59 % dose/g
same,Biodistribution: Skin,"[2]; 1 hr, first organ list r6-r15",4.42 ± 0.65 % dose/g
same,Biodistribution: Spleen,"[2]; 1 hr, first organ list r6-r15",0.13 ± 0.03 % dose/g
same,Biodistribution: Blood,[2]; [7],1.80 ± 0.16 % dose/g
same,Biodistribution: Bone,[2]; [7],1.13 ± 0.01 % dose/g
same,Biodistribution: Brain,[2]; [7],1.28 ± 0.20 % dose/g
same,Biodistribution: Heart,[2]; [7],1.66 ± 0.24 % dose/g
same,Biodistribution: Kidney,[2]; [7],4.29 ± 0.52 % dose/g
same,Biodistribution: Liver,[2]; [7],8.13 ± 1.42 % dose/g
same,Biodistribution: Lung,[2]; [7],1.82 ± 0.31 % dose/g
same,Biodistribution: Muscle,[2]; [7],0.95 ± 0.18 % dose/g
same,Biodistribution: Skin,[2]; [7],1.06 ± 0.09 % dose/g
same,Biodistribution: Spleen,[2]; [7],1.56 ± 0.17 % dose/g
same,Biodistribution: Blood,"[2]; 2 hr, first organ list r6-r15",2.15 ± 0.25 % dose/g
same,Biodistribution: Bone,"[2]; 2 hr, first organ list r6-r15",6.49 ± 0.08 % dose/g
same,Biodistribution: Brain,"[2]; 2 hr, first organ list r6-r15",0.37 ± 0.08 % dose/g
same,Biodistribution: Heart,"[2]; 2 hr, first organ list r6-r15",0.18 ± 0.08 % dose/g
same,Biodistribution: Kidney,"[2]; 2 hr, first organ list r6-r15",0.96 ± 1.58 % dose/g
same,Biodistribution: Liver,"[2]; 2 hr, first organ list r6-r15",6.86 ± 0.59 % dose/g
same,Biodistribution: Lung,"[2]; 2 hr, first organ list r6-r15",0.20 ± 0.36 % dose/g
same,Biodistribution: Muscle,"[2]; 2 hr, first organ list r6-r15",5.96 ± 0.06 % dose/g
same,Biodistribution: Skin,"[2]; 2 hr, first organ list r6-r15",2.91 ± 0.16 % dose/g
same,Biodistribution: Spleen,"[2]; 2 hr, first organ list r6-r15",0.10 ± 0.17 % dose/g
same,Biodistribution: Blood,[2]; [8],1.08 ± 0.06 % dose/g
same,Biodistribution: Bone,[2]; [8],1.64 ± 0.50 % dose/g
same,Biodistribution: Brain,[2]; [8],0.84 ± 0.08 % dose/g
same,Biodistribution: Heart,[2]; [8],1.32 ± 0.33 % dose/g
same,Biodistribution: Kidney,[2]; [8],2.19 ± 0.36 % dose/g
same,Biodistribution: Liver,[2]; [8],4.96 ± 0.90 % dose/g
same,Biodistribution: Lung,[2]; [8],0.98 ± 0.08 % dose/g
same,Biodistribution: Muscle,[2]; [8],0.52 ± 0.08 % dose/g
same,Biodistribution: Skin,[2]; [8],0.68 ± 0.16 % dose/g
same,Biodistribution: Spleen,[2]; [8],1.14 ± 0.18 % dose/g
same,specific binding,"[3]; AD brain homogenates, gray matter",High specific binding
same,specific binding,"[3]; AD brain, white matter homogenates",Relatively low binding
same,specific binding,"[3]; control brain homogenates, grey or white matter",significantly lower specific binding
